This is an account of results in paper PMC4067310, “From Pan-Reactive KV7 Channel Opener to Subtype Selective Opener/Inhibitor by Addition of a Methyl Group” (PLoS ONE, 2014).

Read-outs that look alike come from different tables or passages of the source.

Data set [1] addresses T1, KV7.2-W236L (Homo sapiens, UniProt O43526, W236L).
T1 construct: expressed in transfected cells; host or cells: Xenopus laevis oocytes injected with cRNA (pGEM-HE vector)
In words: Two-electrode voltage-clamp of mutant KV7.2-W236L in Xenopus laevis oocytes. It counts as cell-based. As to the method: Point mutations were introduced using mutated oligonucleotide extension (PfuTurbo Polymerase, Stratagene, La Jolla, CA, USA) from a plasmid template harboring the cDNA of interest, digested with DpnI (Fermentas, St. Leon-Roth, Germany) and transformed into E.coli XL1 Blue cells. The construct was verified by complete DNA sequencing of the cDNA insert. cRNA was prepared from linearized human wild-type (WT) and mutant KV7 channels in the pGEM-HE vector using the T7 m-Message Machine kit (Ambion, Austin, TX, USA) according to the manufacturer's instructions.
Extraction of Xenopus laevis oocytes and injection of cRNA was performed as described previously. Oocytes were kept in Modified Barth's Saline (in mM: 88 NaCl, 1 KCl, 2.4 NaHCO3, 0.41 CaCl2, 0.82 MgSO4, 0.3 Ca(NO3)2, 15 HEPES, pH 7.4 supplemented with 100 U/mL penicillin and 100 µg/mL streptomycin) at 18°C, and currents were recorded after 2-7 days. The care of Xenopus laevis and the oocyte extraction procedure were performed according to national guidelines and approved by the Danish Animal Experiments Inspectorate.
KV7 currents in Xenopus laevis oocytes were recorded using two-electrode voltage-clamp at room temperature in Ringer buffer (in mM: 115 NaCl, 2.5 KCl, 1.8 CaCl2, 0.1 MgCl2, 10 HEPES, pH 7.4) as described previously. Data was acquired using pCLAMP 10.2 software (Molecular Devices, CA, USA) and analyzed using pCLAMP 10.2 and GraphPad Prism 4.0 (GraphPad Software Inc., CA, USA). Currents were elicited from a holding potential of −80 mV by 5 s steps to potentials between −100 and +50 mV in 10 mV increments, followed by a 2 s step to −120 mV.
SMB-1 was dissolved in dimethyl sulfoxide (DMSO) to obtain a concentrated stock solution. On the day of experiments the stock solution was thawed and diluted in Ringer buffer to the final concentrations. A concentration of 10 µM SMB-1 was used unless indicated otherwise. The final DMSO concentration never exceeded 0.1%.
Current – voltage (I–V) relationship curves were generated by normalizing the steady-state peak current measured at potentials between −100 and +50 mV to the current measured at +50 mV in control recordings and plotting the values against the test potential.
The voltage-dependence of activation was determined from tail current analysis using the current measured immediately after the transient capacitive current after stepping to −120 mV from potentials between −100 mV and +50 mV. Data was normalized to extend from 0–1 and the tail current-voltage relationship was fitted to the Boltzmann equation: [drawing 1] (Equation\;1) where I max is the maximum tail current, I min is the minimum tail current, V0.5 is the potential for half maximal activation and k is the slope factor. A V0.5 was calculated for each individual experiment and statistical significance was estimated by paired two-tailed Student's t-test.
Activation kinetics for KV7.2 and KV7.2-W236L was determined by fitting the traces recorded at potentials between −40 and +40 mV to a double exponential function: [drawing 2] (Equation\;2) where I(t) is the current at time t, Ifast and Islow are the current amplitudes at infinite times, and τfast and τslow are the time constants of the fast and slow components, respectively.
For investigation of deactivation kinetics the tail current traces recorded at −120 mV when stepping from the channels' respective ∼V0.5 were fitted to a single exponential function (Eq. 3).

Data set [2] can be described thus: Brain and plasma exposure in rats after subcutaneous administration. Format: in vivo. Conditions: male, Sprague-Dawley, sc, rat, 20 mg/kg s.c.; for concentration at 30 min / concentration at 120 min: n = 3, mean ± S.E.M. On the procedure:
Brain and plasma exposure of SMB-1 was evaluated in male Sprague-Dawley rats (225–250 g, Charles River Lab., UK). SMB-1 was administered subcutaneously in solution at a dose of 20 mg/kg in 25% solutol (dose volume 5 ml/kg) and exposure was assessed after 30 and 120 min (n = 3). Under isoflurane anesthesia, cardiac blood was obtained in EDTA-coated tubes and centrifuged for 10 min at 4°C, after which plasma was harvested. While still under anesthesia, the animal was decapitated, the brain was removed and brain homogenate was prepared by homogenizing the whole brain with 70% acetonitrile (1∶4 v/v) followed by centrifugation and collection of the supernatant. Concentrations of SMB-1 were determined using turboflow chromatography (dual column, focus mode; Thermo Fisher Scientific, Waltham, MA) followed by tandem mass spectrometry detection (Sciex API-3000 MS; Applied Biosystems, Foster City, CA). The limit of detection was 1 ng/ml in plasma and 5 ng/g in brain.

Data set [3] relates to MDCK cell system expressing human MDR1 [ABCB1, P-glycoprotein (P-gp)]. In words: Bidirectional permeability in MDR1-MDCK cells. It counts as in vitro ADME. The note with it: judged from the efflux ratio in MDR1-MDCK cells. On the procedure: (§1) The bidirectional permeability (Papp) of SMB-1 was examined in an MDCK cell system expressing human MDR1 [ABCB1, P-glycoprotein (P-gp)] as described previously. Permeation of the test compound from apical (A) to basal (B) direction or B to A direction was determined in triplicate over a 150-min incubation at 37°C. The efflux ratio was calculated as the ratio between Papp (B to A) and Papp (A to B). Free fraction of SMB-1 was determined using a standard equilibrium dialysis methodology with freshly isolated rat brain homogenate or plasma. Equilibrium dialysis was performed by incubating at 37°C for 5 h in triplicates.

The test system of data set [4] is human MDR1 (ABCB1, P-glycoprotein). In words: Bidirectional permeability in MDR1-MDCK cells. The note with it: dog, MDCK-MDR1, 150-min incubation at 37°C. Format: in vitro ADME. On the procedure:
as §1

[5] abbreviates: brain, read-out: Brain total concentration.
The mark [6] stands for this setting: plasma, read-out: Plasma total concentration.

T1 sequence (O43526 whole entry W236L): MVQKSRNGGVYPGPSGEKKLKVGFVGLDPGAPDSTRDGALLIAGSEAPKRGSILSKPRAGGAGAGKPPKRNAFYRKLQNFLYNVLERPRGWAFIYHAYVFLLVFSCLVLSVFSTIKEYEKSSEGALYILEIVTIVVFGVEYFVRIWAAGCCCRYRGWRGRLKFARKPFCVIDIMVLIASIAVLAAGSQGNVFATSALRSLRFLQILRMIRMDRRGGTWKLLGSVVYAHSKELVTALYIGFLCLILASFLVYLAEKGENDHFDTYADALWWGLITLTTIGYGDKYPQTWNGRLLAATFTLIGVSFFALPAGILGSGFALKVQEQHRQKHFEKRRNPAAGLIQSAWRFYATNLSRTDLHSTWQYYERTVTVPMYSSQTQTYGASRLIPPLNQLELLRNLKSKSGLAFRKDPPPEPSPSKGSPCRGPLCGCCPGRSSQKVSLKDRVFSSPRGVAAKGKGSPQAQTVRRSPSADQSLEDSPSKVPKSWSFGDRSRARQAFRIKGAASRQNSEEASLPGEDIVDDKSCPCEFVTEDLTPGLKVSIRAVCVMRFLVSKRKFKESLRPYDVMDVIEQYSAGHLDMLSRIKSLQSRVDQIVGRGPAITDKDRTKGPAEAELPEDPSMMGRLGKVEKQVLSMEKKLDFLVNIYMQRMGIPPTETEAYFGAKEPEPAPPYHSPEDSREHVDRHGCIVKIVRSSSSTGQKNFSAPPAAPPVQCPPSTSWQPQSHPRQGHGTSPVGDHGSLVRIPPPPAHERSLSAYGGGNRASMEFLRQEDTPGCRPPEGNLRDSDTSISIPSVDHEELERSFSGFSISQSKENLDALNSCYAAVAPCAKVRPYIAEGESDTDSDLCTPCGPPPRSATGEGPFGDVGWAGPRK

As to `C[C@@H](c1ccc2c(c1)N(CC1CC1)CCO2)N(C)C(=O)/C=C/c1ccccc1F` [SMB-1, (E)-N-[(S)-1-(4-Cyclopropylmethyl-3,4-dihydro-2H-1,4-benzoxazin-6-yl)-ethyl]-3-(2-fluoro-phenyl)-N-methyl-acrylamide], the “effect on τact_fast” value in data set [1] (10 µM) is “no significant effect”. In addition, the remaining activity at 10 µM in data set [1] (10 µM SMB-1, +50 mV, n = 6, read-out: current amplitude, % of control) was 68.8 ± 3.9%. Further, the “effect on τact_slow” value in data set [1] (10 µM, at potentials above −20 mV) is “significantly increased”. The “τdeact, deactivation time constant in presence of compound” value in data set [1] (10 µM, control 23.3±2.9 ms, n = 6, p<0.05) was found to be 27.0 ± 3.0 ms. Besides, the “V0.5, voltage-dependence of activation in presence of compound” value in data set [1] (10 µM, control −27.1±2.4 mV, n = 4, p = 0.2) was −15.0±10.1 mV. In data set [2] (setting [5]), the concentration at 30 min was determined as 0.55 ± 0.04 µM and the concentration at 120 min is 0.44 ± 0.07 µM. Also, the Kp at 2 h in data set [2] (brain/plasma, 30 and 120 min, read-out: brain/plasma partition coefficient) fell in the range of 0.04 to 0.07. For the same compound, in data set [2] (setting [6]), the concentration at 30 min was 14 ± 1.5 µM and the concentration at 120 min is 6.4 ± 0.7 µM. Further, in data set [3], the “substrate for the efflux transporter P-gp” value was “not identified as a substrate”. For the same compound, in data set [4] (triplicate, read-out: membrane permeability (Papp)), the Papp at 150 min came to 2.5 ± 0.3 ×10⁻⁶ cm/s. The efflux ratio at 150 min in data set [4] (read-out: efflux ratio, Papp (B to A) / Papp (A to B)) worked out at 0.7.
